This is an account of results in article PMC2225439, “Amyloid as a Depot for the Formulation of Long-Acting Drugs” (PLoS Biology, 2008).

One series is described as follows: Congo red (CR) binding. Format: physicochemical. Set-up: key to Congo Red: b, binding; n, not binding. To be noted: analogs incubated for 30 d, 1 mg/ml in 5% D-mannitol, 0.01% sodium azide, room temperature; UV 300–700 nm and by eye; three independent experiments. The protocol: To confirm amyloid formation by GnRH analogs, CR binding was measured. CR, like Thio T, is a dye routinely used to detect β-sheet–rich assemblies. CR binding can be measured by the “red shift” change of its absorption maximum from 490 to 540 nm, by an increase of the dye's molar absorptivity, and in favorable cases by eye. All three types of measurements were performed with GnRH analogs incubated for 30 d. […] However, five short-acting GnRH analogs, i.e., S3, S4, S6, S10, and S11, bind CR, showing that some short-acting GnRH-analogs are able to form amyloids after prolonged incubation (see also below). In contrast to short-acting analogs, all long-acting analogs bind CR.
(§1) GnRH analogs were dissolved in a glass tube in 1 ml of 5% D-mannitol and 0.01% sodium azide at a concentration of 1 mg/ml. The GnRH analogs were then incubated at room temperature without stirring. The fibril formation was monitored by EM, CR, and time-resolved by Thio T binding studies. Three independent experiments were performed for each sample.
A 5-μl aliquot of peptide sample was mixed with 80 μl of PBS buffer containing 10% ethanol. Then 15 μl of a 100 μM CR solution (filtered through 0.2-μm filter) in PBS containing 10% ethanol was added. After mixing, UV was measured from 300–700 nm. For the measurement of the CR-only spectrum, 15 μl of CR solution with 85 μl of PBS containing 10% ethanol was prepared. As a control, a 5-μl aliquot of GnRH analog mixed with 95 μl of PBS containing 10% ethanol was measured. Three independent experiments were performed for each sample. In addition to the UV measurements, pictures of the cuvette containing the peptide sample and CR were taken to visually show the CR binding to the amyloids.

The nature of series [1]: Thio T binding (amyloid fibril formation). Set-up: key to Thio T Binding: b, binding; n, not binding. To be noted: 1 mg/ml in 5% D-mannitol, 0.01% sodium azide. Format: physicochemical. Here is the method:
The kinetics of fibril formation in vitro is generally a slow process over several days or weeks, and can be monitored by the increase of fluorescence intensity of the cross-β-sheet–sensitive dye, Thio T [15]. Thio T fluorescence is thereby insignificant during the initial incubation period of amyloid aggregation due to the nonexistence of Thio T–sensitive β-sheet aggregates. After the initial phase, a time-dependent increase of fluorescence intensity is observed until a maximum intensity is reached, at which time maximal fibril formation has occurred. […] For the Thio T binding studies, all GnRH analogs were incubated at room temperature at a concentration of 1 mg/ml in 5% D-mannitol, conditions identical to the formulation used in the animal experiments. In addition, 0.01% sodium azide was added. The Thio T fluorescence was monitored daily for all analogs over a period of 21 d (Figure 1).
as §1
A 10-μl aliquot of peptide sample was diluted into 500 μl of water with 5% D-mannitol containing 0.01% (w/v) sodium azide. The solution was mixed with 10 μl of 1 mM Thio T prepared in the same solution. Fluorescence was measured immediately after addition of Thio T. The experiment was measured on a spectrofluorimeter (Photon Technology International) with excitation at 450 nm and emission at 482 nm. The fluorescence intensity at 482 nm was plotted against incubation time (day). A rectangular 10-mm quartz microcuvette was used. Three independent experiments were performed for each sample.

Series [2] in a line: Peptide release from amyloid (dialysis experiment). To be noted: 3.5-kDa MWCO, room temperature, 35 d. The protocol:
Although amyloid fibrils are very stable, they must follow thermodynamic equilibrium conditions between fibril and monomer. […] A total of 200 μl of 30-d-old GnRH analog (in) was dialyzed 4 ml of 5% D-mannitol (out). A 3.5-kDa cutoff, which is twice the size of the peptides studied, was chosen to ensure that the released particles are most likely monomeric. The peptide release and the remaining aggregates were monitored by fluorescence over 35 d at room temperature.
A 200-μl aliquot of aged GnRH in solution conditions given above was transferred into a 0.6-ml Eppendorf tube with a hole in the cap. To study the effect of heparin on peptide release, a mixture of hormone analog and heparin (1:1 v/v) was incubated overnight in parallel with a half-diluted peptide fibril sample in 5% D-mannitol and 0.01% sodium azide. The hole in the cap of the Eppendorf tube was sealed with a 3.5-kDa molecular weight cutoff (MWCO) membrane. Next, the Eppendorf tube was inserted upside down into a 15-ml Falcon tube containing 4 ml of 5% D-mannitol in water and 0.01% sodium azide. Care was taken to make sure that the membrane was exposed to solutions both in and outside and that any bubbles at the membrane interface were removed. The tubes were then incubated at room temperature. To measure the remaining peptide concentration inside the 0.6-ml Eppendorf tube, a 5-μl aliquot was diluted into 500 μl water with 5% D-mannitol, 0.01% sodium azide, and the fluorescence was measured with excitation at 280 nm and emission in the range of 290–500 nm. The excitation slit width was 2 nm, and emission slit width was 11 nm. To determine the peptide concentration outside the membrane in the 15-ml tube, an aliquot of 250 μl of solution was taken from the releasing medium, diluted into 500 μl final volume by 5% D-mannitol, 0.01% sodium azide, and fluorescence was measured. Following spectra recording, the dialysis system was reassembled as described above. […] The normalized intensity maxima from inside and outside the membrane were plotted as a function of time and fit by an exponential function to extract the half-life of the fibrils and the K off, respectively. […] The extracted half-life, t 1/2, is the time taken, during which the fluorescence signal inside the 0.6-ml Eppendorf tube drops by 50%.

In the case of “Ac-DNal-DCpa-Agl(Nic)-Ser-Aph(Ac)-DAph(Ac)-Leu-ILys-Pro-DAla-NH2 [L20]”, in “Congo red (CR) binding”, the “Congo Red” value was “b”. Besides, the “Thio T Binding” value in series [1] (room temperature without stirring, monitored daily over 21 d, fluorescence ex 450 nm / em 482 nm, three independent experiments) is given as “b”. In addition, the “Thio T binding (in words)” value in series [1] (room temperature, 21 d) is listed as “bind significantly more Thio T during the entire experiment”. Also, the KD (in general, a measure of binding affinity in units of concentration) in series [2] (dissociation constant of the aggregates = final monomer concentration, 200 μl of 30-d-old analog dialyzed against 4 ml 5% D-mannitol, fluorescence ex 280 nm) worked out at 8 µM. The t1/2 in series [2] (half-life of fibrils: time in which fluorescence inside drops by 50%, dialysis of 30-d-old analog, 5% D-mannitol, exponential fit, 2 d = intrinsic diffusion of monomer) turned out to be 35 days.
